For the assay, the target named is T1, Human CRF2 receptor (Homo sapiens, UniProt Q13324).
T1 construct: host or cells: CHO-K1 (membrane preparation)
T1 sequence (Q13324 1-411): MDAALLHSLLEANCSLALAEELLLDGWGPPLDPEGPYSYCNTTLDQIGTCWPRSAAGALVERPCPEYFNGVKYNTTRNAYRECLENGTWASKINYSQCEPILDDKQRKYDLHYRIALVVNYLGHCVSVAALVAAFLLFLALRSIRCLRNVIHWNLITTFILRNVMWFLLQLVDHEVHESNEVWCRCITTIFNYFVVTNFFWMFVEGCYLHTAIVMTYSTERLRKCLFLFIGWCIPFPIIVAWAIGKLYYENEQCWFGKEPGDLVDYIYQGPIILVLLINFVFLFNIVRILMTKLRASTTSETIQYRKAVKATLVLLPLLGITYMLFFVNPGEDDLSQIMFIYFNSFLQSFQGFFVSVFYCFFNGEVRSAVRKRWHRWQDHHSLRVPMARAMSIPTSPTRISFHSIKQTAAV
In words: CRF2 receptor binding, scintillation proximity assay (SPA). The following applies: displacement of [125I]-Sauvagine, CHO-K1 cell membranes. As for the experimental part:
The purpose of this example was to test the in vitro binding of the compounds of the invention to receptor subtypes CRF1 and CRF2. The in vitro binding of the compounds was determined in a scintillation proximity assay (SPA) as described below. The native, human Ucn1 and Ucn2 peptides are included as references. Scintillation Proximity Assay: […] Both cell lines were cultured at 37° C. in a humidified atmosphere with 5% CO2. […] Membranes were prepared by the following protocol: cultured cells were washed twice with cold Dulbecco’s phosphate buffered saline and detached using TrypLE™ (ThermoFisher) and transferred to tubes and centrifuged for 5 minutes at 1000 g at +4° C. Pellets were resuspended in ice cold homogenization buffer (20 mM Hepes pH 7.1, 5 mM MgCl2, 1 mg/ml Bacitracin with 2 complete EDTA-free protease inhibitor cocktail tablets/50 ml (Roche)) and then homogenized for 30 seconds using a Ultra-Turrax T25 tissue homogenizer (IKA) at medium speed. The homogenate was centrifuged at 35,000 g for 15 minutes at +4° C. using an ultracentrifuge, and the supernatant was discarded, and fresh homogenization buffer was added. Homogenization of the pellet was repeated a total of three times. The final pellet was resuspended in a few millilitres of homogenization buffer and protein concentration was determined using the Bradford method. The membrane preparation was transferred to cryotubes, and the aliquots were stored at -80° C. Each membrane preparation was subsequently titrated to give an appropriate window in the assay. Test procedure: […] Plates were sealed and incubated at 25° C. for 2 hours in a plate shaker set at 400 rpm and thereafter centrifuged at 1500 rpm for 10 minutes. SPA plates were let to stand at room temperature for about 16 hours prior to reading on microplate scintillation counter. Displacement of radioligand was measured as reduction in luminescence, and IC50 values were calculated by nonlinear regression analysis of four parameter sigmoidal dose-response curves.

Numbered stars: 1 amine (or outer) side, 2 acyl side, 3 side chain; on linkers, the order of the positions; unused ones are H or OH. Side chains are listed from the residue outwards. Peptide text beside a SMILES is read from it. * marks the point of attachment. C20 diacid = O=C(O)CCCCCCCCCCCCCCCCCCC(=O)*; γGlu = O=C(O)[C@H](CCC(=O)[*:2])N[*:1]; AEEA = NCCOCCOCC(=O)O

What is called IC50 is the concentration at which inhibition is half-maximal. Low values mean greater potency in that assay, high ones weaker potency in that assay.

Turning to `CC[C@H](C)[C@H](NC(=O)[C@H](CCC(=O)O)NC(=O)[C@H](C)NC(=O)[C@H](CC(N)=O)NC(=O)[C@@H](NC(=O)[C@@H](NC(=O)[C@H](C)NC(=O)[C@H](CCC(N)=O)NC(=O)[C@H](CCC(=O)O)NC(=O)[C@H](CCCNC(=N)N)NC(=O)[C@H](C)NC(=O)[C@H](C)NC(=O)[C@H](CCCNC(=N)N)NC(=O)[C@H](C)NC(=O)[C@H](CCCNC(=N)N)NC(=O)[C@H](C)NC(=O)[C@H](CCC(N)=O)NC(=O)[C@H](CCC(=O)O)NC(=O)[C@H](CC(C)C)NC(=O)[C@H](CC(C)C)NC(=O)[C@@H](NC(=O)[C@H](CCC(N)=O)NC(=O)[C@H](CC(C)C)NC(=O)[C@H](CC(C)C)NC(=O)CNC(=O)[C@@H](NC(=O)[C@@H]1CCCN1C(=O)[C@@H](NC(=O)[C@H](CC(=O)O)NC(=O)[C@H](CC(C)C)NC(=O)[C@H](CO)NC(=O)[C@H](CC(C)C)NC(=O)[C@@H](NC(=O)[C@@H](NC(=O)[C@@H](N)CCCCNC(=O)COCCOCCNC(=O)COCCOCCNC(=O)CC[C@H](NC(=O)CC[C@H](NC(=O)CC[C@H](NC(=O)CCCCCCCCCCCCCCCCCCC(=O)O)C(=O)O)C(=O)O)C(=O)O)[C@@H](C)CC)C(C)C)C(C)C)[C@@H](C)CC)[C@@H](C)CC)[C@@H](C)O)[C@@H](C)O)C(=O)N[C@@H](CC(C)C)C(=O)N[C@@H](C)C(=O)N[C@@H](CCC(=O)O)C(=O)N[C@H](C(N)=O)C(C)C` [Compound 3] (H-K([AEEA-AEEA-γGlu-γGlu-γGlu-C20 diacid])IVLSLDVPIGLLQILLEQARARAAREQATTNAEILAEV-NH2), the IC50 stood at 1.14 nM.
In turn, `CC[C@H](C)[C@H](NC(=O)[C@H](CCC(=O)O)NC(=O)[C@H](C)NC(=O)[C@H](CC(N)=O)NC(=O)[C@@H](NC(=O)[C@@H](NC(=O)[C@H](C)NC(=O)[C@H](CCC(N)=O)NC(=O)[C@H](CCC(=O)O)NC(=O)[C@H](CCCNC(=N)N)NC(=O)[C@H](C)NC(=O)[C@H](C)NC(=O)[C@H](CCCNC(=N)N)NC(=O)[C@H](C)NC(=O)[C@H](CCCNC(=N)N)NC(=O)[C@H](C)NC(=O)[C@H](CCC(N)=O)NC(=O)[C@H](CCC(=O)O)NC(=O)[C@H](CC(C)C)NC(=O)[C@H](CC(C)C)NC(=O)[C@@H](NC(=O)[C@H](CCC(N)=O)NC(=O)[C@H](CC(C)C)NC(=O)[C@H](CC(C)C)NC(=O)CNC(=O)[C@@H](NC(=O)[C@@H]1CCCN1C(=O)[C@@H](NC(=O)[C@H](CC(=O)O)NC(=O)[C@H](CC(C)C)NC(=O)[C@H](CO)NC(=O)[C@H](CC(C)C)NC(=O)[C@@H](NC(=O)[C@@H](NC(=O)[C@@H](N)CCCCNC(=O)COCCOCCNC(=O)COCCOCCNC(=O)CC[C@H](NC(=O)CC[C@H](NC(=O)CC[C@H](NC(=O)CCCCCCCCCCCCCCCCCCC(=O)O)C(=O)O)C(=O)O)C(=O)O)[C@@H](C)CC)C(C)C)C(C)C)[C@@H](C)CC)[C@@H](C)CC)[C@@H](C)O)[C@@H](C)O)C(=O)N[C@@H](CC(C)C)C(=O)N[C@@H](CCC(=O)O)C(=O)N[C@@H](CCCNC(=N)N)C(=O)N[C@H](C(N)=O)C(C)C` [Compound 4] (H-K([AEEA-AEEA-γGlu-γGlu-γGlu-C20 diacid])IVLSLDVPIGLLQILLEQARARAAREQATTNAEILERV-NH2) returned an IC50 of 1.47 nM.
